Like-named read-outs stand apart in the source and are kept apart here.
Tests used:
[1] = system: 5637; assay: Single agent cytotoxicity assay (CellTiter-Glo); type: cell-based; details: CTG assay, 72 h
Description: (§1) A2780, SK-OV-3, OVCAR-3, NCI-H460, NCI-H1975, NCI-H2122, 5637 and HT1376 were cultured in RPMI Medium 1640 (Invitrogen-22400105) supplemented with 10% fetal bovine serum (FBS; Invitrogen-10099141). All the cell lines were maintained in a humidified incubator at 37° C. with 5% CO2. Cell culture media and supplements were purchased from Invitrogen, and tissue culture flasks were purchased from Corning, 96-well plates and 384-well plates were purchased from Greiner. CellTiter-Glo Luminescent Cell Viability Assay kits were purchased from Promega (Promega-G7573), cells counter Vi-Cell was purchased from Beckman, detection instrument Envision was purchased from PerkinElmer.
(§2) Paclitaxcel (used as a reference) and cisplatin were purchased from SELLECK, and they were of highest purity available. All compounds attained solubility in DMSO and when diluted into culture media. DMSO, compounds solutions and culture media were warmed to 37° C. for the solution preparation and dilutions.
(§3) Eight cell lines were allowed to adhere to 96-well plates overnight (100 μL/well), for drug treatments with 3.16 fold dilution, 9 dose points, triplicates or vehicle control, compound stock solutions were prepared in DMSO and added to the wells to give the indicated final drug concentrations. Final DMSO concentration was 0.5%. Cellular ATP concentrations were assessed by using the CellTiter-Glo Cell Viability Assay as per the manufacturer's instructions 72 h after drug addition.
(§4) Stage 1: Single Agent IC50 Determination
(§5) In Stage 1 the IC50 (using 5 or more concentrations) of each individual compound cisplatin, carboplatin, gemcitabine and NUC-1031) in the relevant cell lines was determined.

[2] = system: OVCAR-3; assay: Single agent cytotoxicity assay (CellTiter-Glo); type: cell-based; details: CTG assay, 72 h; for IC50: Homo sapiens
Description: as §1, §2, §3, §4, §5

[3] = system: NCI-H1975; assay: Single agent cytotoxicity assay (CellTiter-Glo); type: cell-based; details: CTG assay, 72 h; for IC50: Homo sapiens
Description: as §1, §2, §3, §4, §5

[4] = system: A2780; assay: Single agent cytotoxicity assay (CellTiter-Glo); type: cell-based; details: CTG assay, 72 h; for IC50: Homo sapiens
Description: as §1, §2, §3, §4, §5

[5] = system: HT1376; assay: Single agent cytotoxicity assay (CellTiter-Glo); type: cell-based; details: 72 h; for IC50: Homo sapiens, HT-1376, CTG assay
Description: as §1, §2, §3, §4, §5

[6] = system: SK-OV-3; assay: Single agent cytotoxicity assay (CellTiter-Glo); type: cell-based; details: 72 h; for IC50: Homo sapiens, SK-OV-3, SK-OV3, CTG assay
Description: as §1, §2, §3, §4, §5

[7] = system: NCI-H460; assay: Single agent cytotoxicity assay (CellTiter-Glo); type: cell-based; details: CTG assay, 72 h; for IC50: Homo sapiens
Description: as §1, §2, §3, §4, §5

[8] = ProGem1 phase I study in subjects with advanced solid malignancies; type: in vivo, human
Excerpt: ProGem1 was a first-time-in-human (FTIH), phase I, open label, two stage study to investigate the safety, tolerability, clinical efficacy, pharmacokinetics (PK) and pharmacodynamics (PD) of NUC-1031 given in two parallel dosing schedules in subjects with advanced solid malignancies (EudraCT Number: 2011-005232-26). Subjects had the following tumour types at study entry: colorectal cancer (7 subjects), unknown primary (3), ovarian cancer (12), breast cancer (4), pancreatic cancer (9), cholangiocarcinoma (7), endometrial cancer (3), cervical cancer (2), lung cancer (7), mesothelioma (3), oesophageal cancer (3), cancer of the fallopian tube (1), trophoblast (1), renal cancer (1), gastric cancer (1), anal cancer (1), cancer of the thymus (1) and osteosarcoma (1).

## C[C@H](NP(=O)(OC[C@H]1O[C@@H](n2ccc(N)nc2=O)C(F)(F)[C@@H]1O)Oc1ccccc1)C(=O)OCc1ccccc1 (stereo partly drawn) [NUC-1031, 2′-Deoxy-2′,2′-difluoro-D-cytidine-5′-O-[phenyl (benzoxy-L-alaninyl)] phosphate]
[1]
  Max Inhibition_%: 77.88%
[1]; read-out: Ab IC50
  IC50: 200 nM
[1]; read-out: relative IC50
  IC50: 120 nM
[2]
  Max Inhibition_%: 11.76%
[2]; read-out: Ab IC50
  IC50: > 1980 nM
[2]; read-out: relative IC50
  IC50: 200 nM
[3]
  Max Inhibition_%: 37.91%
[3]; read-out: Ab IC50
  IC50: > 1980 nM
[3]; read-out: relative IC50
  IC50: 370 nM
[4]
  Max Inhibition_%: 79.15%
[4]; read-out: Ab IC50
  IC50: 25 nM
[4]; read-out: relative IC50
  IC50: 16 nM
[5]; CTG assay
  Max Inhibition_%: −2.54%
[5]; read-out: Ab IC50
  IC50: > 1980 nM
[5]; read-out: relative IC50
  IC50: > 1980 nM
[6]; read-out: Ab IC50
  IC50: 70 nM
[6]; read-out: relative IC50
  IC50: 60 nM
[6]; SK-OV3, CTG assay
  Max Inhibition_%: 61.59%
[7]
  Max Inhibition_%: 91.98%
[7]; read-out: Ab IC50
  IC50: 40 nM
[7]; read-out: relative IC50
  IC50: 40 nM
[8]; patients with advanced progressive cancers who exhausted standard options
  anti-tumour activity: anti-tumour activity
[8]; relative to levels normally associated with gemcitabine
  levels of toxic metabolite dFdU released relative to gemcitabine: less than half
